The supplement of paper PMC10307832

Assays:
Test in all cases: relative viability (nuclei count vs DMSO), 5 days (fraction); higher = more cells survive
Masitinib + Pemetrexed = compound: Cc1ccc(NC(=O)c2ccc(CN3CCN(C)CC3)cc2)cc1Nc1nc(-c2cccnc2)cs1 [Masitinib] + Nc1nc2[nH]cc(CCc3ccc(C(=O)N[C@@H](CCC(=O)O)C(=O)O)cc3)c2c(=O)[nH]1 [Pemetrexed] (partner 0.2 µM)
Outline: (§1)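 One day after seeding in 1536-well plates, lung cancer cell lines were dosed by pin tool. Dosing was either single-drug or a fixed anchor-drug dose plus five library-drug doses (not always all listed) in √10 steps. After 5 days, nuclei were stained in one fix-and-stain step and counted on 4× images, and relative viability is the nuclei count of treated wells over that of vehicle wells, given as the median of duplicate plates.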

[1] = compound: CC1=CC(=CC=C1)NC2=NC(=CS2)C3=CC=NC=C3 + Cc1nc(NC(=O)N2CCC[C@H]2C(N)=O)sc1-c1ccnc(C(C)(C)C(F)(F)F)c1 [Alpelisib] (partner 2 µM)
Outline: as §1

Masitinib + Pictilisib = compound: Cc1ccc(NC(=O)c2ccc(CN3CCN(C)CC3)cc2)cc1Nc1nc(-c2cccnc2)cs1 [Masitinib] + CS(=O)(=O)N1CCN(Cc2cc3nc(-c4cccc5[nH]ncc45)nc(N4CCOCC4)c3s2)CC1 [Pictilisib] (partner 1 µM)
Outline: as §1

[2] = compound: CC1=CC(=CC=C1)NC2=NC(=CS2)C3=CC=NC=C3 + CC(=O)c1c(C)c2cnc(Nc3ccc(N4CCNCC4)cn3)nc2n(C2CCCC2)c1=O [Palbociclib] (partner 0.5 µM)
Outline: as §1

Cell Line | relative viability (Masitinib + Pemetrexed; first compound 0.01 µM) | relative viability (Masitinib + Pemetrexed; first compound 0.03162 µM) | relative viability (Masitinib + Pemetrexed; first compound 0.1 µM) | relative viability (Masitinib + Pemetrexed; first compound 0.3162 µM) | relative viability (Masitinib + Pemetrexed; first compound 1 µM) | relative viability ([1]; first compound 0.08 µM) | relative viability ([1]; first compound 0.253 µM) | relative viability ([1]; first compound 0.8 µM) | relative viability ([1]; first compound 2.53 µM) | relative viability ([1]; first compound 8 µM) | relative viability (Masitinib + Pictilisib; first compound 0.01 µM) | relative viability (Masitinib + Pictilisib; first compound 0.03162 µM) | relative viability (Masitinib + Pictilisib; first compound 0.1 µM) | relative viability (Masitinib + Pictilisib; first compound 0.3162 µM) | relative viability (Masitinib + Pictilisib; first compound 1 µM) | relative viability ([2]; first compound 0.08 µM) | relative viability ([2]; first compound 0.253 µM) | relative viability ([2]; first compound 0.8 µM) | relative viability ([2]; first compound 2.53 µM) | relative viability ([2]; first compound 8 µM)
SW 1573 | 0.808 | 0.942 | 0.854 | 0.873 | 0.92 | 0.746 | 0.744 | 0.593 | 0.732 | 0.625 | 0.471 | 0.542 | 0.478 | 0.472 | 0.452 | 0.443 | 0.364 | 0.43 | 0.426 | 0.257
RERF-LC-KJ | 0.475 | 0.522 | 0.44 | 0.535 | 0.459 | 1.01 | 0.83 | 0.773 | 0.715 | 0.654 | 0.496 | 0.514 | 0.617 | 0.404 | 0.457 | 1 | 0.998 | 0.743 | 0.787 | 0.618
EMC-BAC-2 | 0.435 | 0.453 | 0.447 | 0.429 | 0.328 | 0.66 | 0.747 | 0.702 | 0.779 | 0.719 | 0.553 | 0.518 | 0.58 | 0.552 | 0.503 | 0.495 | 0.496 | 0.526 | 0.504 | 0.454
LK-2 | 0.291 | 0.34 | 0.31 | 0.281 | 0.217 | 0.898 | 1.09 | 1.33 | – | 1.19 | 0.595 | 0.656 | 0.671 | 0.569 | 0.641 | – | 0.764 | 0.675 | 0.699 | 1.06
NCI-H2228 | 0.342 | 0.372 | 0.347 | 0.347 | 0.363 | 0.476 | 0.644 | 0.612 | 0.688 | 0.502 | 0.381 | 0.36 | 0.398 | 0.236 | 0.392 | 0.655 | 0.797 | 0.74 | 0.749 | 0.615
NCI-H322M | 0.606 | 0.594 | 0.625 | 0.615 | 0.582 | 0.747 | 0.868 | 0.771 | 0.903 | 0.853 | 0.545 | 0.463 | 0.481 | 0.503 | 0.483 | 0.463 | 0.47 | 0.565 | 0.574 | 0.563
NCI-H1299 | – | – | – | – | – | 1.04 | 1.01 | 1.05 | 1.05 | 0.988 | 0.8 | 0.785 | 0.81 | 0.947 | 0.736 | – | – | – | – | –
ABC-1 | – | – | – | – | – | 0.928 | 0.891 | 0.873 | 0.907 | 0.967 | 0.686 | 0.623 | 0.977 | 0.652 | 0.61 | 0.627 | – | 0.944 | 0.795 | 0.473
ChaGo-K-1 | 0.251 | 0.274 | 0.258 | 0.248 | 0.251 | – | – | – | – | – | 0.929 | 0.466 | 0.929 | 0.823 | 0.598 | 0.9 | 0.961 | 0.946 | 0.943 | 0.859
NCI-H1563 | 0.714 | 0.741 | 0.835 | 0.729 | 0.701 | 0.881 | 0.94 | 0.968 | 0.98 | 0.828 | 0.656 | 0.641 | 0.647 | 0.665 | 0.676 | – | – | – | – | –
NCI-H1703 | – | – | – | – | – | 0.391 | 0.294 | 0.408 | 0.354 | 0.323 | 0.226 | 0.255 | 0.217 | 0.203 | 0.201 | – | – | – | – | –
NCI-H1648 | 0.635 | 0.891 | 0.75 | – | 0.7 | – | – | – | – | – | – | – | – | – | – | 0.242 | 0.263 | 0.281 | 0.295 | 0.302
NCI-H727 | – | – | – | – | – | 0.44 | 0.497 | 0.53 | 0.508 | 0.469 | 0.506 | 0.416 | 0.443 | 0.317 | 0.317 | 0.725 | – | 0.541 | – | 0.695
NCI-H1650 | 0.389 | 0.49 | 0.395 | 0.365 | 0.374 | – | – | – | – | – | 0.53 | 0.501 | 0.583 | 0.548 | 0.535 | 0.278 | 0.281 | 0.449 | 0.235 | 0.239
A549 | – | – | – | – | – | 0.778 | 0.693 | 0.913 | 0.758 | 0.673 | 0.459 | 0.48 | 0.478 | 0.576 | 0.566 | – | – | – | – | –
NCI-H522 | 1.13 | 0.935 | 0.95 | 0.841 | 0.997 | – | – | – | – | – | – | – | – | – | – | 1.19 | 0.797 | 0.92 | 0.954 | 0.947
SW 900 | 0.462 | 0.47 | 0.451 | 0.478 | 0.452 | – | – | – | – | – | – | – | – | – | – | 0.508 | 0.464 | 0.49 | 0.477 | 0.46
IA-LM | – | – | – | – | – | 0.706 | – | 0.815 | 0.533 | 0.673 | 0.291 | 0.415 | 0.353 | 0.455 | 0.418 | – | – | – | – | –
EBC-1 | – | – | – | – | – | 0.644 | 0.744 | 0.773 | 0.809 | 0.712 | 0.348 | 0.357 | 0.427 | 0.309 | 0.413 | – | – | – | – | –
